Results as given in US20100112617A1, “Evaluating RTK Target Drugs” (Apocell, Inc, priority 2007, published 2010).

What was measured:
Assay type in all cases: cell-based
[1] = biological target: T1, EGFR (Homo sapiens, UniProt P00533); test: pEGFR and tEGFR levels in EGF-stimulated HT-29 colon cancer cells by laser scanning cytometry; settings: HT-29 cells; for pEGFR fold change in level / pEGFR/tEGFR fold change in level / tEGFR fold change in level: 0% FCS, EGF 100 ng/ml for 5 min
T1 construct: host or cells: HT-29 colon cancer cells
Procedure: We sought to test RTK response to RTKI's and thus measured both phospho-RTK and total RTK using a known RTKI challenge reagent. AEE788 (NOVARTIS®) is an oral multiple-receptor tyrosine kinase inhibitor of EGFR, human epidermal growth factor receptor 2 (HER-2), and vascular endothelial growth factor receptor (VEGFR). Thus, we measured EGFR response to AEE788 using antibody quantitation of the two parameters. HT-29 colon cancer cells were treated with increasing doses of AEE788, (0, 4, 20, 100, and 1000 nM) for 4 hours in serum-free media followed by EGF stimulation at 100 ng/ml for 5 minutes. Cells were then fixed and stained with anti-phospho-EGFR (P-EGFR-Y1173) antibody followed by a secondary antibody conjugated with a fluorescent probe. The mean fluorescence index (MFI) of pEGFR was quantified by laser scanning cytometry (LSC) […] and the results are shown in Table 2.

[2] = biological target: T2, PDGFR-β (Homo sapiens, UniProt P09619); test: pPDGFR-β/tPDGFR-β ratio in PDGF-stimulated HUVEC cells; set-up: endogenous in cells; host or cells: HUVEC; settings: for HUVEC pPDGFR-β/tPDGFR-β fold ratio change: PDGF 50 ng/ml 10 min
Source text: (§1) Thus, we repeated the experiment using additional RTKs and RTKIs. We used a known RTKI challenge reagent SU11248, which blocks phosphorylation of several kinases, including VEGFR2 (KDR), stem cell tyrosine kinase receptor (KIT), platelet-derived growth factor receptor (PDGFR), and fms-related tyrosine kinase 3 (FLT3).

[3] = biological target: T2, PDGFR-β; test: pPDGFR-β/tPDGFR-β ratio in PDGF-stimulated GIST cells; set-up: endogenous in cells; host or cells: GIST (gastrointestinal stromal tumor) cells; settings: for GIST pPDGFR-β/tPDGFR-β fold ratio change: PDGF 50 ng/ml 10 min
Source text: as §1

T1 sequence (P00533 25-1210): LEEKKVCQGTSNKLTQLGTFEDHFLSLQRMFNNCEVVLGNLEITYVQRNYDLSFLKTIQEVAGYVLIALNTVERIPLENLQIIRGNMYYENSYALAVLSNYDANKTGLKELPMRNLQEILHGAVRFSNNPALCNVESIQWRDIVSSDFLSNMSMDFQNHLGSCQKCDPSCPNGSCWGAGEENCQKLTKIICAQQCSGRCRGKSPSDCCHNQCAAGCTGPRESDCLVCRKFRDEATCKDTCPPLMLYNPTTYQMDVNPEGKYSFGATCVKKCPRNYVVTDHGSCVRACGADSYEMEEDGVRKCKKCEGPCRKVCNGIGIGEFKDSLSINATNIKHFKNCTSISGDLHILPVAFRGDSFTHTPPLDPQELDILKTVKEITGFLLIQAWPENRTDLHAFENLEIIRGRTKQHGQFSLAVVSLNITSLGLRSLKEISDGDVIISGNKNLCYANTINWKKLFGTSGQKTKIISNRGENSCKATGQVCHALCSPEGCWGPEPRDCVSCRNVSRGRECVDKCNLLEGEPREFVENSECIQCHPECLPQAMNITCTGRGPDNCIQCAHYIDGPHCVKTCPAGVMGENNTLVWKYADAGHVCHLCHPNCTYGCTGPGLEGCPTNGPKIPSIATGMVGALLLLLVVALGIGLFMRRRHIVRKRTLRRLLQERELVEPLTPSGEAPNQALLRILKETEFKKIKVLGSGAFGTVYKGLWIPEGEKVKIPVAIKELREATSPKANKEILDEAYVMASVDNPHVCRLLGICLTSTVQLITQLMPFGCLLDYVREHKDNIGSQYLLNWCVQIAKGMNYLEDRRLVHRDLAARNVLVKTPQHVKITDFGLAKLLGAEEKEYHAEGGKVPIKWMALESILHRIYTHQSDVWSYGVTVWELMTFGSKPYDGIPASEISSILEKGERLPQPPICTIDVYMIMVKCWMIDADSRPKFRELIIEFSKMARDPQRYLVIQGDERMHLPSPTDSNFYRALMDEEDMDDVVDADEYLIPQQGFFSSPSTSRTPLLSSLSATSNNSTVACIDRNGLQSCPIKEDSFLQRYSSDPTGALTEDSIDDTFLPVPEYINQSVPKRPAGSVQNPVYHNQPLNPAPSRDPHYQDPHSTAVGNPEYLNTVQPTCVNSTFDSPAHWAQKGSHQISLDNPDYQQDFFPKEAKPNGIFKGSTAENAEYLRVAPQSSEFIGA
T2 sequence (P09619 33-1106): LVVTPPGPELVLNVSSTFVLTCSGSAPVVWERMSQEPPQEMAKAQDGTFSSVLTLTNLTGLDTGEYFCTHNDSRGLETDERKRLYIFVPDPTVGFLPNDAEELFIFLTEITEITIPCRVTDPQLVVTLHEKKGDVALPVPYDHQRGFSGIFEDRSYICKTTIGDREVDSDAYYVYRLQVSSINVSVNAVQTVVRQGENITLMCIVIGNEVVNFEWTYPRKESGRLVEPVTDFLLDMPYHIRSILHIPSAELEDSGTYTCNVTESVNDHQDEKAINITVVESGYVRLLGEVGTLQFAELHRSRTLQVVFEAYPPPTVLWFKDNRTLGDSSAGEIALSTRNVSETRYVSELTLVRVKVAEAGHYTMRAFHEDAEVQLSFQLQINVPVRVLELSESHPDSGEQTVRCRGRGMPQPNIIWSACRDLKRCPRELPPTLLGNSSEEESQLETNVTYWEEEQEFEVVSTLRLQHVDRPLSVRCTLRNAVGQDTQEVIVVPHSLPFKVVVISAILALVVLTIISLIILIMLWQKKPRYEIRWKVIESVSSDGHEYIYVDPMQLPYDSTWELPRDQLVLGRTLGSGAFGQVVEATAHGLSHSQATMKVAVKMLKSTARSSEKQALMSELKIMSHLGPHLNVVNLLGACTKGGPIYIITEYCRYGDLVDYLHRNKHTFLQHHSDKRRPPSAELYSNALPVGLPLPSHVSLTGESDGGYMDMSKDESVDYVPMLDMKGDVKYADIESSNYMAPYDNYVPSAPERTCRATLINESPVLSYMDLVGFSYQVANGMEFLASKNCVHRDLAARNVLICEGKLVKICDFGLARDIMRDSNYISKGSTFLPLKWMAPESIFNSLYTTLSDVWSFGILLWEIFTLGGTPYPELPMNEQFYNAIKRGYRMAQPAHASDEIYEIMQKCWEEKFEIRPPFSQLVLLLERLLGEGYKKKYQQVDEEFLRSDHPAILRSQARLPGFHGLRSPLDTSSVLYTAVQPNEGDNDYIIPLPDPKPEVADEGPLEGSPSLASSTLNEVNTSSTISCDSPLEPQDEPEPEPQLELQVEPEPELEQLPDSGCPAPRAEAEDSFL

CCN1CCN(Cc2ccc(-c3cc4c(N[C@H](C)c5ccccc5)ncnc4[nH]3)cc2)CC1 [AEE788]
pEGFR fold change in level ([1]; 4 nM for 4 h): 1.36 fold
pEGFR/tEGFR fold change in level ([1]; 4 nM for 4 h): 0.65 fold
tEGFR fold change in level ([1]; 4 nM for 4 h): 2.11 fold
pEGFR fold change in level ([1]; 20 nM for 4 h): 0.97 fold
pEGFR/tEGFR fold change in level ([1]; 20 nM for 4 h): 0.21 fold
tEGFR fold change in level ([1]; 20 nM for 4 h): 4.61 fold
pEGFR fold change in level ([1]; 100 nM for 4 h): 0.70 fold
pEGFR/tEGFR fold change in level ([1]; 100 nM for 4 h): 0.16 fold
tEGFR fold change in level ([1]; 100 nM for 4 h): 4.37 fold
pEGFR fold change in level ([1]; 1000 nM for 4 h): 0.52 fold
pEGFR/tEGFR fold change in level ([1]; 1000 nM for 4 h): 0.15 fold
tEGFR fold change in level ([1]; 1000 nM for 4 h): 3.53 fold
EGF-induced phosphorylation of EGFR (pEGFR), in words ([1]; 4-1000 nM): inhibited EGF-induced phosphorylation of its receptor (pEGFR) in a dose-dependent manner
total EGFR levels, in words ([1]; 4-1000 nM): up-regulated total EGFR levels

CCN(CC)CCNC(=O)c1c(C)[nH]c(/C=C2\C(=O)Nc3ccc(F)cc32)c1C [SU11248]
pPDGFR-β/tPDGFR-β ratio, in words [2]: decreased in a dose-dependent manner
HUVEC pPDGFR-β/tPDGFR-β fold ratio change ([2]; 0.01 μM): 2.42 ± 0.36 fold
HUVEC pPDGFR-β/tPDGFR-β fold ratio change ([2]; 0.1 μM): 1.48 ± 0.15 fold
HUVEC pPDGFR-β/tPDGFR-β fold ratio change ([2]; 1 μM): 1.40 ± 0.23 fold
pPDGFR-β/tPDGFR-β ratio, in words [3]: decreased in a dose-dependent manner
GIST pPDGFR-β/tPDGFR-β fold ratio change ([3]; 0.01 μM): 0.97 ± 0.05 fold
GIST pPDGFR-β/tPDGFR-β fold ratio change ([3]; 0.1 μM): 0.00 ± 0.59 fold
GIST pPDGFR-β/tPDGFR-β fold ratio change ([3]; 1 μM): 0.00 ± 0.08 fold
